# B1: TRAIL: death ligand TRAIL, positive control for cytotoxicity (protein, UniProt P50591 1-281, looked up)
# Tumor necrosis factor ligand …: MAMMEVQGGPSLGQTCVLIVIFTVLLQSLCVAVTYVYFTNELKQMQDKYSKSGIACFLKEDDSYWDPNDEESMNSPCWQVKWQLRQLVRKMILRTSEETISTVQEKQQNISPLVRERGPQRVAAHITGTRGRSNTLSSPNSKNEKALGRKINSWESSRSGHSFLSNLHLRNGELVIHEKGFYYIYSQTYFRFQEEIKENTKNDKQMVQYIYKYTSYPDPILLMKSARNSCWSKDAEYGLYSIYQGGIFELKENDRIFVSVTNEHLIDMDHEASFFGAFLVG
# How the values were obtained:
# Type in all cases: cell-based, human
# [1] = tested on: U251MG glioblastoma cells; assay: Cytotoxicity assay, cell survival by crystal violet staining
# Method: 20,000 U251MG glioblastoma cells or human astrocytic cells (ScienCell) were plated into 96-well plates. After 24 h cells were treated with rhHMGB1 (Sigma Aldrich) or rat recombinant HMGB1 (generously provided by Angelika Bierhaus, Heidelberg, Germany), and TRAIL (for 24 h) or Temozolomide (for 72 h) alone or in combination, respectively. […] Cell proliferation was assessed by seeding 50,000 U251 MG cells in 6 cm culture plates and treatment with rhHMGB1, followed by counting the cells in a Neubauer chamber at day 0, 2, 4 and 5.
# [2] = tested on: U251 MG cells; assay: ROS measurement by DCF fluorescence and FACS analysis; conditions: co-treatment with rhHMGB1 (FIG. 3A)
# Method: For measurement of reactive oxygen species (ROS) and mitochondrial membrane potential (MMP) 1.5×10^6 U251 MG cells were seeded in 6 cm plates, treated with 40 nM rhHMGB1 for 24 h and incubated with the fluorescent DiOC6 (3,3′-dihexyloxacarbocyanine iodide, 40 nmol/ll, Sigma Chemical Co., St. Louis, Mo.) or with the fluorescent H2DCF-DA (dichlorodihydrofluorescein diacetate, 10 μM, Invitrogen) for 1 h at 37° C., respectively. The cells were trypsinized and centrifuged at 2,000 rpm for 5 min at 4° C. The supernatant was discarded and the pellet was washed 2× with sterile Dulbecco's PBS containing 0.1% fetal calf serum on ice and again centrifuged at 2,000 rpm for 5 min at 4° C. The pellet was resuspended in 500 μl sterile Dulbecco's PBS on ice. Oxidation of H2DCF to DCF by ROS and DiOC6 accumulation in mitochondria were measured immediately at FL-1 by flow cytometry using a FACScalibur (Beckton Dickinson, Heidelberg, Germany). Cell cycle was determined by measurement of priopidiumiodide (PI)-uptake of the cells according to standard procedures. Briefly, the cells were harvested and washed twice in sterile Dulbecco's PBS on ice, spun down at 2,000 rpm for 5 min at 4° C. and fixed with 70% ethanol for 30 min at 4° C. Contaminating RNA was eliminated by treatment with 100 μg/ml of RNase A, then 50 μg/ml PI was added and DNA content was measured immediately at FI-2. […]
# [3] = tested on: JNK1/2; assay: Western blot analysis of JNK1/2 phosphorylation; conditions: NAC, rhHMGB1 40 nM (FIG. 3E)
# Method: The U251 MG tumor cells were lysed in lysis buffer containing 20 mmol/L Tris-HCl (pH 7.4), 137 mmol/L NaCl, 10% (v/v) glycerine, 1% Triton X-100, 2 mmol/L EDTA, 100 mmol/L phenylmethylsulfonyl fluoride, and protease inhibitors (Complete mini; Roche Molecular Biochemicals). For the detection of phosphoprotein levels, 10 mmol/L NaPPi, 50 mmol/L NaF, and 20 mmol/L NaVO4 were added to the lysis buffer. After 15 min incubation on ice, the lysates were centrifuged at 14,000×g for 10 min. The total protein concentration of the lysates was measured using the Bradford assay (Bio-Rad). Soluble protein (25-100 μg per lane) was separated on 10% to 15% polyacrylamide gels and blotted onto nitrocellulose by standard procedures. […]
# [4] = tested on: pseudo rho zero cells; assay: Survival of pseudo rho zero cells by crystal violet analysis; conditions: TRAIL 100 ng/ml, 24 h (FIG. 5)
# Method: U251 glioblastoma cells and non-immortalized human astrocytic cells (ScienCell, USA) were maintained in DMEM (Life Technologies) containing 10% FCS, 4.5 g/L glucose, glutamine, 110 mg/L sodium pyruvate, and 1% penicillin-streptomycin (Life Technologies) and in astrocyte medium (ScienCell) containing 2% FBS (fetal bovine serum) and 1% penicillin-streptomycin at 37° C. and 5% CO2. For the generation of pseudo rho zero cells (0.0), U251 MG cells were treated with low dose (250 ng/ml) ethidiumbromide for 3 months. The cells were supplemented with DMEM (10% FCS, 1% P/S) containing 50 μg/ml L-pyruvate and 5 mg/ml uridine (King and Attardi, 1989).
# 20,000 U251MG glioblastoma cells or human astrocytic cells (ScienCell) were plated into 96-well plates. After 24 h cells were treated with rhHMGB1 (Sigma Aldrich) or rat recombinant HMGB1 (generously provided by Angelika Bierhaus, Heidelberg, Germany), and TRAIL (for 24 h) or Temozolomide (for 72 h) alone or in combination, respectively. Cell survival was measured by crystal violet staining as described previously (Gdynia et al., 2007). Cell proliferation was assessed by seeding 50,000 U251 MG cells in 6 cm culture plates and treatment with rhHMGB1, followed by counting the cells in a Neubauer chamber at day 0, 2, 4 and 5.
# [5] = tested on: U251 MG cells; assay: Subcellular fractionation and Western blot: cytochrome c release, caspase 3 cleavage
# Method: The U251 MG tumor cells were lysed in lysis buffer containing 20 mmol/L Tris-HCl (pH 7.4), 137 mmol/L NaCl, 10% (v/v) glycerine, 1% Triton X-100, 2 mmol/L EDTA, 100 mmol/L phenylmethylsulfonyl fluoride, and protease inhibitors (Complete mini; Roche Molecular Biochemicals). For the detection of phosphoprotein levels, 10 mmol/L NaPPi, 50 mmol/L NaF, and 20 mmol/L NaVO4 were added to the lysis buffer. After 15 min incubation on ice, the lysates were centrifuged at 14,000×g for 10 min. The total protein concentration of the lysates was measured using the Bradford assay (Bio-Rad). Soluble protein (25-100 μg per lane) was separated on 10% to 15% polyacrylamide gels and blotted onto nitrocellulose by standard procedures. The membranes were washed, incubated with primary antibody as indicated: mouse anti-human caspase-3 (1:500, Imgenex, San Diego, Calif.); polyclonal rabbit anti-human phosphorylated p44/42 mitogen-activated protein kinase and polyclonal rabbit anti-human phosphorylated stress-activated protein kinase/JNK (1:1,000, Cell Signaling Technology, Inc.); polyclonal anti-rabbit JNK 54/46 (1:1,000, Cell Signaling Technology, Inc.); polyclonal rabbit anti-human IkBalpha (1:500, Santa Cruz Biotechnology, Inc.); mouse monoclonal anti-human BNIP3 (1:10,000, R&D Systems, Inc.); mouse monoclonal anti-human phosphorylated-histone H2A.X (Upstate, Inc.); mouse monoclonal anti-human cytochrome c (1:100, BD Biosciences Pharmingen GmbH, Heidelberg, Germany); mouse anti-human cytochrome c oxidase complex IV (1:100, Molecular Probes, Invitrogen, Karlsruhe, Germany); polyclonal rabbit antimalondialdehyde (1:250, Calbiochem, Merck, Darmstadt, Germany) and mouse monoclonal antibodies to β-tubulin or β-actin (1:3,000, Sigma Chemical Co., St. Louis, Mo.), washed, and incubated with the appropriate secondary antibody (1:3,000; horseradish peroxidase-conjugated, Bio-Rad). Bound antibodies were visualized using an enhanced chemiluminescence detection system (GE-Healthcare, Uppsala, Sweden).
# Enrichment of mitochondrial fractions was performed using the ApoAlert Cell Fractionation Kit (Clontech, Mountain View, Calif.) as described previously (Gdynia et al., 2008). Briefly, after centrifugation and several washing steps, the cell pellet was resuspended in ice-cold 1× Fractionation Buffer Mix containing protease inhibitors (Complete mini; Roche Molecular Biochemicals, Indianapolis, Ind.) and 1 mM 1,4-Dithio-DL-threitol solution (DTT). After 10 min incubation on ice, cells were homogenized with a dounce tissue grinder. Efficiency of homogenization was controlled by microscopy. The homogenate was centrifuged at 700×g for 10 min at 4° C. and the resulting supernatant at 10,000×g for 25 min at 4° C. […]
molecule,measurement,setting,value
"CC(=O)N[C@@H](CS)C(=O)O [NAC, reference compound]",effect on rhHMGB1-induced cell death,"[1]; NAC 1 mM, 48 h co-treatment with rhHMGB1 (FIG. 3B)",substantially inhibited
same,effect on rhHMGB1-induced ROS generation,[2],partially prevented
same,effect on JNK activation after rhHMGB1 treatment,[3],prevented the activation of JNK
"O=c1ccn([C@@H]2O[C@H](CO)[C@@H](O)[C@H]2O)c(=O)[nH]1 [uridine, reference compound]",effect on rhHMGB1-induced cell death,"[1]; uridine 5 mg/ml in culture medium, 48 h (FIG. 3F)",substantially inhibited
B1,apoptotic signalling in pseudo rho zero cells,[4],still intact
same,release of cytochrome c into the cytosolic fraction,"[5]; TRAIL 200 ng/ml, 3 h (FIG. 6)",detected
same,cleavage of caspase 3,[5]; TRAIL treatment (FIG. 6),observed

# Reference: patent US20110123483A1, “HMGB1 FOR CANCER TREATMENT” (DEUTSCHES KREBSFORSCHUNGSZENTRUM, priority 2009, published 2011)
